Carcinogen call data for eight compounds are collected here from PubChem BioAssay AID1259411 (Chemical Carcinogenesis Research Information System (CCRIS), 2018).

The source made the active and inactive calls. The rule behind the calls is not given here.

The subject of the series is rodent carcinogenicity bioassays, tumor incidence. Briefly: CCRIS carcinogenicity studies. In a few lines: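 Archive of carcinogenicity, mutagenicity, tumor promotion and tumor inhibition results drawn from journals, NCI reports and other sources, expert-reviewed; covers 1985-2011 and is no longer updated.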

For the compound `[P]#[In]`, the carcinogen call is “active; positive” (Species: MOUSE, Strain/Sex: B6C3F1/FEMALE, Route: INHALATION, Dose: 0, 0.03, 0.1, 0.3 MG/M3 AEROSOL FOR 6 HR/D 5 D/WK FOR 105 WK (CONTROL AND LOW DOSE GROUPS) OR 21 WK (MID AND HIGH DOSE G, Dose: 0, 0.03, 0.1, 0.3 MG/M3 AEROSOL FOR 6 HR/D 5 D/WK FOR 105 WK (CONTROL AND LOW DOSE GROUPS) OR 21 WK (MID AND HIGH DOSE G, Tumor Site: Type of Lesion: LIVER: HEPATOCELLULAR ADENOMA, HEPATOCELLULAR CARCINOMA, HEPATOCELLULAR ADENOMA OR CARCINOMA, LUNG: ALVEOLAR/BRONCHIOLAR); “active; positive” (Species: MOUSE, Strain/Sex: B6C3F1/MALE, Route: INHALATION, Dose: 0, 0.03, 0.1, 0.3 MG/M3 AEROSOL FOR 6 HR/D 5 D/WK FOR 105 WK (CONTROL AND LOW DOSE GROUPS) OR 21 WK (MID AND HIGH DOSE G, Dose: 0, 0.03, 0.1, 0.3 MG/M3 AEROSOL FOR 6 HR/D 5 D/WK FOR 105 WK (CONTROL AND LOW DOSE GROUPS) OR 21 WK (MID AND HIGH DOSE G, Tumor Site: Type of Lesion: LIVER: HEPATOCELLULAR ADENOMA, HEPATOCELLULAR CARCINOMA, HEPATOCELLULAR ADENOMA OR CARCINOMA, LUNG: ALVEOLAR/BRONCHIOLAR); “active; positive” (Species: RAT, Strain/Sex: F344/FEMALE, Route: INHALATION, Dose: 0, 0.03, 0.1, 0.3 MG/M3 AEROSOL FOR 6 HR/D 5 D/WK FOR 105 WK (CONTROL AND LOW DOSE GROUPS) OR 22 WK (MID AND HIGH DOSE G, Dose: 0, 0.03, 0.1, 0.3 MG/M3 AEROSOL FOR 6 HR/D 5 D/WK FOR 105 WK (CONTROL AND LOW DOSE GROUPS) OR 22 WK (MID AND HIGH DOSE G, Tumor Site: Type of Lesion: ADRENAL MEDULLA: BENIGN PHEOCHROMOCYTOMA, LUNG: ALVEOLAR/BRONCHIOLAR ADENOMA, ALVEOLAR/BRONCHIOLAR CARCINOMA, ALVEOLAR/B); “active; positive” (Species: RAT, Strain/Sex: F344/MALE, Route: INHALATION, Dose: 0, 0.03, 0.1, 0.3 MG/M3 AEROSOL FOR 6 HR/D 5 D/WK FOR 105 WK (CONTROL AND LOW DOSE GROUPS) OR 22 WK (MID AND HIGH DOSE G, Dose: 0, 0.03, 0.1, 0.3 MG/M3 AEROSOL FOR 6 HR/D 5 D/WK FOR 105 WK (CONTROL AND LOW DOSE GROUPS) OR 22 WK (MID AND HIGH DOSE G, Tumor Site: Type of Lesion: ADRENAL MEDULLA: BENIGN PHEOCHROMOCYTOMA, BENIGN OR MALIGNANT PHEOCHROMOCYTOMA, LUNG: ALVEOLAR/BRONCHIOLAR ADENOMA, ALVE).
`Cc1cc2c(c3ccc4ccccc4c13)[C@@H]1O[C@@H]1[C@H](O)[C@H]2O`: the carcinogen call is, setting by setting: (Species: MOUSE, Strain/Sex: ICR/FEMALE, Route: INTRAPERITONEAL, Dose: 8 NMOL/5 µL DMSO ON DAY 1, 16 NMOL/10 µL ON DAY 8, AND 32 NMOL/20 µL ON DAY 15 OF AGE (STUDY DURATION: 35 WK)) “inactive; negative”; (Species: MOUSE, Strain/Sex: ICR/MALE, Route: INTRAPERITONEAL, Dose: 8 NMOL/5 µL DMSO ON DAY 1, 16 NMOL/10 µL ON DAY 8, AND 32 NMOL/20 µL ON DAY 15 OF AGE (STUDY DURATION: 35 WK), Tumor Site: Type of Lesion: LUNG: TUMORS) “active; positive”.
Turning to `Nc1cc(Cl)nc(C(=O)O)c1Cl`, the carcinogen call (Species: Mouse, Strain/Sex: CD-1/Female, Route: Oral, Dose: 0, 5, 250, 1000 mg/kg/d in feed for 18 mo, Dose: 0, 5, 250, 1000 mg/kg/d in feed for 18 mo) was “inactive; negative; purity was 94.5%”; the carcinogen call (Species: Mouse, Strain/Sex: CD-1/Male, Route: Oral, Dose: 0, 5, 250, 1000 mg/kg/d in feed for 18 mo, Dose: 0, 5, 250, 1000 mg/kg/d in feed for 18 mo) was “inactive; negative; purity was 94.5%”; the carcinogen call (Species: Rat, Strain/Sex: F344/Female, Route: Oral, Dose: 0, 5, 50, 500, 1000 mg/kg/d in feed for 24 mo, Dose: 0, 5, 50, 500, 1000 mg/kg/d in feed for 24 mo) was “inactive; negative; purity was 94.5%”; the carcinogen call (Species: Rat, Strain/Sex: F344/Male, Route: Oral, Dose: 0, 5, 50, 500, 1000 mg/kg/d in feed for 24 mo, Dose: 0, 5, 50, 500, 1000 mg/kg/d in feed for 24 mo) was “inactive; negative; purity was 94.5%”.
Turning to `CN(N=O)C(CCC(=O)O)c1cccnc1` (stereo unspecified), the carcinogen call is, setting by setting: (Species: MOUSE, Strain/Sex: STRAIN-A/FEMALE, Route: INTRAPERITONEAL, Dose: 0, 2.23 MG 3/WK FOR 20 WK (STUDY DURATION: 50 WK)) “inactive; negative”; (Species: MOUSE, Strain/Sex: STRAIN-A/FEMALE, Route: INTRAPERITONEAL, Dose: 0, 200 UMOL MOUSE (TOTAL DOSE) ADMINISTERED IN 0.1 ML SALINE 3/WK (TOTAL 20 INJECTIONS) (STUDY DURATION: 37 WK)) “inactive; negative”; (Species: MOUSE, Strain/Sex: STRAIN-A/FEMALE, Route: INTRAPERITONEAL, Dose: 0, 200 UMOL TOTAL DOSE ADMINISTERED IN SUBDOSES 3/WK FOR 7 WK (STUDY DURATION: 37 WK)) “inactive; negative”.
For `OC1C=Cc2c(cc3ccc4cccc5c6ccccc6c2c3c45)C1O` (stereo unspecified), the carcinogen call (Species: MOUSE, Strain/Sex: SWISS/FEMALE, Route: DERMAL, Dose: 0, 1, 4 NMOL IN 100 µL ACETONE 2/WK FOR 40 WK (STUDY DURATION: 48 WK), Dose: 0, 1, 4 NMOL IN 100 µL ACETONE 2/WK FOR 40 WK (STUDY DURATION: 48 WK), Tumor Site: Type of Lesion: SKIN: TUMORS) is “active; positive”.
Turning to `OC(c1ccc(Cl)cc1)(c1ccc(Cl)cc1)C(Cl)(Cl)Cl`, the carcinogen call is “inactive; negative” (Species: MOUSE, Strain/Sex: B6C3F1/FEMALE, Route: ORAL, Dose: 0, 122, 243 PPM IN DIET, Dose: 0, 122, 243 PPM IN DIET); “active; positive” (Species: MOUSE, Strain/Sex: B6C3F1/MALE, Route: ORAL, Dose: 0, 264, 528 PPM IN DIET, Dose: 0, 264, 528 PPM IN DIET, Tumor Site: Type of Lesion: LIVER: HEPATOCELLULAR CARCINOMA OR HEPATOCELLULAR ADENOMA); “inactive; negative” (Species: RAT, Strain/Sex: OSBORNE-MENDEL/FEMALE, Route: ORAL, Dose: 0, 380, 760 PPM IN DIET, Dose: 0, 380, 760 PPM IN DIET); “inactive; negative” (Species: RAT, Strain/Sex: OSBORNE-MENDEL/MALE, Route: ORAL, Dose: 0, 471, 942 PPM IN DIET, Dose: 0, 471, 942 PPM IN DIET).
For the compound `CNC(=O)Oc1cccc2c1OC(C)(C)C2`, the carcinogen call by setting is: (Species: MOUSE, Strain/Sex: ICR/FEMALE, Route: ORAL, Dose: 0, 3, 8 PPM IN DRINKING WATER FOR 12 MO (STUDY DURATION: 12 MO), Dose: 0, 3, 8 PPM IN DRINKING WATER FOR 12 MO (STUDY DURATION: 12 MO)) “inactive; negative”; (Species: MOUSE, Strain/Sex: ICR/MALE, Route: ORAL, Dose: 0, 3, 8 PPM IN DRINKING WATER FOR 12 MO (STUDY DURATION: 12 MO), Dose: 0, 3, 8 PPM IN DRINKING WATER FOR 12 MO (STUDY DURATION: 12 MO)) “inactive; negative”; (Species: Mouse, Strain/Sex: Charles River CD-1/Female (60/group), Route: Oral, Dose: 0, 20, 125, 500 ppm in diet for 2 yrs, Dose: 0, 20, 125, 500 ppm in diet for 2 yrs) “inactive; negative (study details not given in source; purity 95.6%)”; (Species: Mouse, Strain/Sex: Charles River CD-1/Male (60/group), Route: Oral, Dose: 0, 20, 125, 500 ppm in diet for 2 yrs, Dose: 0, 20, 125, 500 ppm in diet for 2 yrs) “inactive; negative (study details not given in source; purity 95.6%)”; (Species: Rat, Strain/Sex: Charles River CD/Female (60/group), Route: Oral, Dose: 0, 10, 20, 100 ppm in diet for 2 yrs, Dose: 0, 10, 20, 100 ppm in diet for 2 yrs) “inactive; negative (study details not given in source; purity 95.6%)”; (Species: Rat, Strain/Sex: Charles River CD/Male (60/group), Route: Oral, Dose: 0, 10, 20, 100 ppm in diet for 2 yrs, Dose: 0, 10, 20, 100 ppm in diet for 2 yrs) “inactive; negative (study details not given in source; purity 95.6%)”.
For the compound `COc1cccc2c1cc([N+](=O)[O-])c1c(C(=O)O)cc3c(c12)OCO3` (tested in a mixture with another compound), the carcinogen call was “active; positive” (Species: RAT, Strain/Sex: WISTAR/FEMALE, Route: GAVAGE, Dose: 0.1, 1.0, 10 MG/KG/D, 7 D/WK FOR 3 MO (LOW DOSE ALSO GIVEN FOR 6 OR 12 MO), Dose: 0.1, 1.0, 10 MG/KG/D, 7 D/WK FOR 3 MO (LOW DOSE ALSO GIVEN FOR 6 OR 12 MO), Tumor Site: Type of Lesion: FORESTOMACH: PAPILLOMA, CARCINOMA) and “active; positive” (Species: RAT, Strain/Sex: WISTAR/MALE, Route: GAVAGE, Dose: 0.1, 1.0, 10 MG/KG/D, 7 D/WK FOR 3 MO (LOW DOSE ALSO GIVEN FOR 6 OR 12 MO), Dose: 0.1, 1.0, 10 MG/KG/D, 7 D/WK FOR 3 MO (LOW DOSE ALSO GIVEN FOR 6 OR 12 MO), Tumor Site: Type of Lesion: FORESTOMACH: PAPILLOMA, CARCINOMA, URINARY BLADDER: PAPILLOMA, CARCINOMA, KIDNEY: CARCINOMA, Tumor Site: Type of Lesion: FORESTOMACH: PAPILLOMA, CARCINOMA, URINARY BLADDER: PAPILLOMA, CARCINOMA, KIDNEY: CARCINOMA).
